Assay results reported in US20230390282A1, “TREATMENT OF EYE CONDITIONS” (The University of Birmingham, priority 2020, published 2023).
Entries after “also recorded” stand apart in the source; their conditions may differ.

How the values were obtained:
dorsal column (DC) axons = test: T8 dorsal column (DC) crush model of spinal cord injury: axon regeneration, electrophysiology, sensory and locomotor tests; assay type: in vivo, rat; settings: for DC axon regeneration: GAP43+ axons rostral to/beyond the lesion site
Description: DC crush injury model. Rats were injected subcutaneously with 0.05 ml Buprenorphine to provide analgesia prior to surgery and anaesthetised using 5% of Isoflurane in 1.8 ml/l of O2 with body temperature and heart rate monitored throughout surgery.
Chk2 inhibition studies in the DC crush injury model. […] Chk1i (LY2603618) was used at equimolar concentrations for each experiment. Rats were killed in a rising concentration of CO2 at either 28 d for immunohistochemistry and western blot analyses or 6 weeks for electrophysiology and functional tests.
Sham treated animals (partial laminectomy but no DC injury) were also included as additional controls. At 4 weeks after DC injury and treatment, ipsilateral L4/L5 DRG pairs were harvested, total RNA extracted using Trizol reagent as described above and knock down of Chk1 and Chk2 mRNA knockdown using quantitative qRT-PCR, as described above. Contralateral L4/L5 DRG pairs were treated the same as above and used as controls. […] This included western blot to determine pChk1 and pChk2 levels after shChk2 treatment. For these experiments, animals were randomly assigned to DC+shNull and DC+shChk2 groups each comprising n=6 rats and repeated on 3 independent occasions (total n=18 rats/group). […] Animals were allowed to survive for 6 weeks with functional testing (tape sensing+removal and ladder crossing tests) performed pre- and post-DC injury as described below. Electrophysiology was performed on the same set of animals at 6 weeks after DC injury and treatment as described below.
Quantification of DC axon regeneration. […] Briefly, the number of intersections of GAP43^+ fibers were counted through a dorsoventral orientated line in reconstructed serial parasagittal sections of the cord (serial 50μm-thick sections ˜70-80 sections/animal; n=10 rats/treatment)). Axon number was then represented as % of fibers counted at 4 mm above the lesion, where the DC was intact.
Electrophysiology. […] Briefly, with the experimenter masked to the treatment conditions, silver wire electrodes applied single-current pulses (0.05 ms) through a stimulus isolation unit in increments (0.2, 0.3, 0.6, 0.8, and 1.2 mA) at L1-L2 and compound action potentials (CAP) were recorded at C4-C5 along the surface of the midline spinal cord. Spike 2 software was then used to calculate CAP amplitudes between the negative deflection after the stimulus artifact and the next peak of the wave. CAP area was calculated by rectifying the negative CAP component (full-wave rectification) and measuring its area. At the different stimulation intensities. […] Representative CAP traces are processed output data from Spike 2 software.
Functional tests. […] Briefly, animals (n=6 rats/group, 3 independent repeats; total n=18/group) received training to master traversing the horizontal ladder for 1w before functional testing. Baseline parameters for all functional tests were established 2-3 d before injury. Animals were then tested 2 d after DC lesion+treatment and then weekly for 6 weeks. Experiments were performed by 2 observers (treatment conditions were masked) in the same order, the same time of day and each test performed for 3 individual trials. Horizontal ladder test: This tests the animals locomotor function and is performed on a 0.9-meter-long horizontal ladder with a diameter of 15.5 cm and randomly adjusted rungs with variable gaps of 3.5-5.0 cm. The total number of steps taken to cross the ladder and the left and right rear paw slips being were recorded and the mean error rate was then calculated by dividing the number of slips by the total number of steps taken.

RGC [1] = settings: 24 days after ONC
[2] = tested on: dorsal root ganglion neuron (DRGN) cultures; test: Primary adult rat DRGN cultures: survival and neurite outgrowth; assay type: cell-based
Description: (§1) Rat DRGN and retinal cultures. […] Cells were cultured for 4 days in a humidified chamber at 37° C. and 5% CO2 before being subjected to quantitative RT-PCR or immunocytochemistry, as described below.

RGC [3] = test: Rat retinal cultures: RGC survival and neurite outgrowth; assay type: cell-based; settings: 1-50 μM
Description: as §1

RGC [4] = test: Glaucoma model (intracameral TGFβ): RGC survival; assay type: in vivo, rat; settings: 30 days after the induction of glaucoma
Description: Induction of glaucoma. […] Intraocular pressure was measured using an iCare
Tonolab rebound tonometer (Icare, Helsinki, Finland).

RGC [5] = test: Optic neuritis model: RGC survival and RNFL thickness; assay type: in vivo, mice
Description: Induction of optic neuritis. […] Animals were intraperitoneally injected with 150 ng Bordetella pertussis toxin on day 0 and 2. Animals were monitored daily and assessed for the development of EAE. At the end of the experiment, animals were then killed by CO2 overdose.
Measurement of RNFL thinning using optical coherence tomography (OCT). A Spectralis HRA+OCT machine was used to capture OCT images. Examinations were recorded in both right (oculus dextrus, OD) and left eyes (oculus sinister, OS) of each animal at day 0 and day 21 after immunisation. […] A RNFL single exam using the automatic real time (ART) mode (allows averaging of 100 recordings) was produced for each mouse eye, which automatically measured RNFL thickness (μm) in a 30° circle surrounding the optic nerve head.

[6] = Chk2i: 3 weeks after injury, others over the whole 6 weeks

COc1cc2nc(-c3cc(F)ccc3O)nc(N[C@@H]3CNC[C@H]3C(C)(C)O)c2cc1OC [Chk2i]
DC axon regeneration (dorsal column (DC) axons): significant DC axon regeneration
improvement in RGC function measured by flash electroretinography (ERG) amplitude (RGC [1]): > 83%

FGF2: positive control for DRGN cultures, pre-optimised 10 ng/ml
% DRGN with neurites ([2]; 4 days in culture): 42%
mean neurite length ([2]; 4 days in culture, controls 12 μm): 180 μm

Cc1cnc(NC(=O)Nc2cc(Br)c(C)cc2OC[C@@H]2CNCCO2)cn1 [Chk1i]
effect on DRGN survival ([2]; 1-50 μM): no effect
neurite outgrowth in DRGN ([2]; 4 days in culture): no effect
DRGN survival ([2]; 4 days in culture, NBA-treated controls 40%): no effect
mean CAP area at different stimulation intensities (dorsal column (DC) axons; 6 weeks after DC injury): significantly attenuated
negative CAP amplitudes (dorsal column (DC) axons; 6 weeks after DC injury, all stimulation intensities): significantly attenuated
ladder crossing test (locomotor function) outcome (dorsal column (DC) axons; [6]): significant deficit remains; also recorded: deficit remaining
tape sensing/removal test (sensory function) outcome (dorsal column (DC) axons; [6]): significant deficit remained
DC axon regeneration (dorsal column (DC) axons): no axon regeneration beyond the lesion site
effect on RGC survival (RGC [3]): no effect
protection of RGC from death (RGC [4]): no effect
protection of RGC from death (RGC [5]; 21 days after induction): no effect
protection against retinal nerve fibre layer thinning (RGC [5]; OCT at day 21): no effect
effect on ERG traces (RGC [1]): no effect
